Converted amounts (≈) assume the structure as drawn.
Tests used:
Hs68 [1] = experiment: Anti-HCMV activity in Hs 68 cell line by plaque reduction assay; format: functional, cell-based; settings: Homo sapiens
Hs68 [2] = experiment: Cytotoxicity in Hs 68 cell line by inhibition of cell proliferation; format: functional; settings: Homo sapiens

IC50 (Hs68 [1]) [µg/mL]	SMILES	CC50 (Hs68 [2]) [µg/mL]
0.5 (≈ 2.87 µM)	O=C(O)c1cc2ccncc2cn1	–
> 25	COc1ccccc1CNC(=O)c1ccc2ccccc2n1	10 (≈ 34.2 µM)
